From ChEMBL document CHEMBL6103573, “Discovery of novel thienopyridine indole derivatives as inhibitors of tubulin polymerization targeting the colchicine-binding site with potent anticancer activities” (Eur J Med Chem, 2025)
Activity calls are given as the source filed them. No cut-off for these calls is given here.

Columns and labels:
[1] = tested on: KYSE-450; assay: Antiproliferative activity against human KYSE-450 cells assessed as inhibition of cell proliferation incubated for 48 hrs by MTT assay; type: functional, cell-based; conditions: KYSE-450, 48 h
[2] = tested on: HGC-27; assay: Antiproliferative activity against human HGC-27 cells assessed as cell viability at 0.5 to 2 nmol/L incubated for 48 hrs by MTT assay (reference value: 86 %); type: functional; conditions: dose 0.5-2 nmol/L, at 0.5 to 2 nM
[3] = tested on: MGC-803; assay: Antiproliferative activity against human MGC-803 cells assessed as reduction in cell viability at 0.25 to 2.0 nmol/L by MTT assay; type: functional, cell-based; conditions: dose 0.25-2 nmol/L, time 6-48 hrs
[4] = tested on: HGC-27; assay: Antiproliferative activity against human HGC-27 cells assessed as survival rate at 2 nmol/L measured after 6 hrs by MTT assay relative to control; type: functional; conditions: read-out: Survival
[5] = tested on: HGC-27; assay: Antiproliferative activity against human HGC-27 cells assessed as reduction in cell viability at 0.25 to 2.0 nmol/L by MTT assay; type: functional, cell-based; conditions: dose 0.25-2 nmol/L, time 6-48 hrs
[6] = molecular target: T1, Tubulin (Homo sapiens) (UniProt P68371+Q9H4B7+P0DPH7+P68366+Q13509+Q71U36+P04350+Q3ZCM7+P07437+P68363+Q9BQE3+Q6PEY2+Q13885+Q9BVA1+Q9BUF5); assay: Disruption of microtubule network in human MGC-803 cells assessed as irregular cellular morphology at 0.25 to 2.0 nmol/L incubated for 24 hrs by DAPI staining based fluorescence microscopic analysis; type: cell-based; conditions: dose 0.25-2 nmol/L
[7] = molecular target: T1, Tubulin (Homo sapiens); assay: Disruption of microtubule network in human MGC-803 cells assessed as disruption of mitosis at 0.25 to 2.0 nmol/L incubated for 24 hrs by DAPI staining based fluorescence microscopic analysis; type: cell-based; conditions: dose 0.25-2 nmol/L
[8] = molecular target: T1, Tubulin (Homo sapiens); assay: Disruption of microtubule network in human MGC-803 cells assessed as appearance of multinucleation at 0.25 to 2.0 nmol/L incubated for 24 hrs by DAPI staining based fluorescence microscopic analysis; type: cell-based; conditions: dose 0.25-2 nmol/L
[9] = molecular target: T1, Tubulin (Homo sapiens); assay: Disruption of microtubule network in human HGC-27 cells assessed as disruption of mitosis at 0.25 to 2.0 nmol/L incubated for 24 hrs by DAPI staining based fluorescence microscopic analysis; type: cell-based; conditions: dose 0.25-2 nmol/L
[10] = tested on: MGC-803; assay: Antiproliferative activity against human MGC-803 cells by MTT assay; type: functional, cell-based; conditions: dose 0.25-2 nmol/L
[11] = tested on: HGC-27; assay: Induction of cell cycle arrest in human HGC-27 cells assessed as accumulation of cells at G2/M phase incubated for 24 hrs by RNase A/propidium iodide staining based flow cytometric analysis; type: functional; conditions: dose 0.25-2 nmol/L
[12] = tested on: MGC-803; assay: Induction of cell cycle arrest in human MGC-803 cells assessed as downregulation of Cdc25c level measured after 48 hrs by Western blot analysis; type: functional, cell-based; conditions: dose 0.25-2 nmol/L
[13] = tested on: HGC-27; assay: Induction of cell cycle arrest in human HGC-27 cells assessed as downregulation of Wee1 level measured after 48 hrs by Western blot analysis; type: functional, cell-based; conditions: dose 0.25-2 nmol/L
[14] = tested on: HGC-27; assay: Induction of cell cycle arrest at G2 phase in human HGC-27 cells assessed as downregulation of Cyclin B1 level at 0.25 to 2.0 nmol/L measured after 48 hrs by Western blot analysis; type: functional, cell-based; conditions: dose 0.25-2 nmol/L
[15] = tested on: MGC-803; assay: Induction of apoptosis in human MGC-803 cells assessed as cell contraction at 0.25 to 2.0 nmol/L incubated for 48 hrs by bright field microscopic analysis; type: functional, cell-based; conditions: dose 0.25-2 nmol/L
[16] = tested on: MGC-803; assay: Induction of apoptosis in human MGC-803 cells assessed as appearance of bright cells at 0.25 to 2.0 nmol/L incubated for 48 hrs by bright field microscopic analysis; type: functional, cell-based; conditions: dose 0.25-2 nmol/L
[17] = tested on: MGC-803; assay: Induction of apoptosis in human MGC-803 cells assessed as cell rupture at 0.25 to 2.0 nmol/L incubated for 48 hrs by bright field microscopic analysis; type: functional, cell-based; conditions: dose 0.25-2 nmol/L
[18] = tested on: HGC-27; assay: Induction of apoptosis in human HGC-27 cells assessed as increase in cleaved Caspase-9 expression at 0.25 to 2.0 nmol/L incubated for 48 hrs by Western blotting analysis; type: functional, cell-based; conditions: dose 0.25-2 nmol/L
[19] = tested on: HGC-27; assay: Induction of apoptosis in human HGC-27 cells assessed as increase in cleaved Caspase-3 expression at 0.25 to 2.0 nmol/L incubated for 48 hrs by Western blotting analysis; type: functional, cell-based; conditions: dose 0.25-2 nmol/L
[20] = tested on: MGC-803; assay: Induction of apoptosis in human MGC-803 cells assessed as increase in cleaved Caspase-3 expression at 0.25 to 2.0 nmol/L incubated for 48 hrs by Western blotting analysis; type: functional, cell-based; conditions: dose 0.25-2 nmol/L
[21] = tested on: MGC-803; assay: Induction of apoptosis in human MGC-803 cells assessed as late apoptotic cells at 1.5 nmol/L incubated for 48 hrs by Annexin V-FITC/propidium iodide staining based flow cytometry analysis (reference value: 2.22 %); type: functional
[22] = tested on: MGC-803; assay: Induction of apoptosis in human MGC-803 cells assessed as early apoptotic cells at 2.0 nmol/L incubated for 48 hrs by Annexin V-FITC/propidium iodide staining based flow cytometry analysis (reference value: 0.83 %); type: functional
[23] = tested on: HGC-27; assay: Induction of apoptosis in human HGC-27 cells assessed as early apoptotic cells at 1.5 nmol/L incubated for 48 hrs by Annexin V-FITC/propidium iodide staining based flow cytometry analysis (reference value: 2.04 %); type: functional
[24] = tested on: HGC-27; assay: Induction of apoptosis in human HGC-27 cells assessed as late apoptotic cells at 1.5 nmol/L incubated for 48 hrs by Annexin V-FITC/propidium iodide staining based flow cytometry analysis (reference value: 3.70 %); type: functional
[25] = tested on: HGC-27; assay: Induction of apoptosis in human HGC-27 cells assessed as late apoptotic cells at 2.0 nmol/L incubated for 48 hrs by Annexin V-FITC/propidium iodide staining based flow cytometry analysis (reference value: 3.70 %); type: functional
[26] = tested on: MGC-803; assay: Induction of apoptosis in human MGC-803 cells assessed as increase in total apoptotic rate at 2 nmol/L incubated for 48 hrs by Annexin V-FITC/propidium iodide staining based flow cytometry analysis relative to control; type: functional
[27] = tested on: HGC-27; assay: Anti-migratory activity against human HGC-27 cells assessed as decrease in cell migration at 1 nmol/L measured after 24 hrs by wound healing assay relative to control; type: functional; design: scale not given: the % may be the effect or the level left
[28] = tested on: HUVEC; assay: Anti-angiogenesis activity in HUVEC cells assessed as reduction in cell viability by measuring survival rate at 2 nmol/L incubated for 24 hrs by MTT assay relative to control; type: functional; conditions: Homo sapiens, read-out: Survival
[29] = tested on: HUVEC; assay: Anti-angiogenesis activity in HUVEC cells assessed as reduction in cell viability by measuring survival rate at 2 nmol/L incubated for 48 hrs by MTT assay relative to control; type: functional; conditions: Homo sapiens, read-out: Survival
[30] = tested on: HUVEC; assay: Anti-vascular activity in HUVEC cells assessed as reduction in length of tubular network incubated for 5 hrs by Matrigel based inverted microscopic analysis; type: functional, cell-based; conditions: Homo sapiens, dose 0.5-2 nmol/L
[31] = Toxicity in female BALB/c-nu nude mouse xenografted with human MGC-803 cells assessed as change in spleen morphology at 5 mg/kg, po administrated every other day for 11 times and measured after 21 days by hematoxylin and eosin staining based analysis; type: organism-based; conditions: in vivo, 504 h, time 21 day
[32] = Toxicity in female BALB/c-nu nude mouse xenografted with human MGC-803 cells assessed as change in lung morphology at 5 mg/kg, po administrated every other day for 11 times and measured after 21 days by hematoxylin and eosin staining based analysis; type: organism-based; conditions: in vivo, 504 h, time 21 day
[33] = tested on: MGC-803; assay: Antitumor activity against human MGC-803 cells xenografted in female BALB/c-nu nude mouse assessed as increase in apoptotic cells at 5 mg/kg, po administrated every other day for 11 times and measured after 21 days by TUNEL staining based assay; type: functional, organism-based; conditions: time 21.0 day

## CN(c1ccc2c(ccn2C)c1)c1nc(N2CCCC2)nc2sccc12
[1]
  IC50: 3.16 nM
[2]
  Activity: 38%
[3]
  Activity: Time-dependent-effect
[4]
  viability at 0.002 µM: 83%
[5]
  Activity: Time-dependent-effect
[6]
  Activity: Active
[7]
  Activity: Active
[8]
  Activity: Active
[9]
  Activity: Active
[10]
  Activity: Dose-dependent-effect
[11]
  Activity: Dose-dependent-effect
[12]
  Activity: Dose-dependent-effect
[13]
  Activity: Dose-dependent-effect
[14]
  Activity: Active
[15]
  Activity: Active
[16]
  Activity: Active
[17]
  Activity: Active
[18]
  Activity: Active
[19]
  Activity: Active
[20]
  Activity: Active
[21]
  Activity: 6.33%
[22]
  Activity: 54.93%
[23]
  Activity: 15.58%
[24]
  Activity: 5.22%
[25]
  Activity: 5.64%
[26]
  Activity: 60%
[27]
  Activity: 17%
[28]
  viability at 0.002 µM: 59.2%
[29]
  viability at 0.002 µM: 28.3%
[30]
  Activity: Dose-dependent-effect
[31]
  Activity: Non-toxic
[32]
  Activity: Non-toxic
[33]
  Activity: Active
